pEC50: −log10 of the molar value.
The compounds below were run against T1, Mitogen-activated protein kinase kinase kinase 3 (Homo sapiens, UniProt Q99759) (assay: inhibitors of MEK5 binding to MEKK3, SAR follow-up, multiplex assay, wild-type MEKK3 (AID 2145)). Conditions: not given.
T1 sequence (Q99759 whole entry): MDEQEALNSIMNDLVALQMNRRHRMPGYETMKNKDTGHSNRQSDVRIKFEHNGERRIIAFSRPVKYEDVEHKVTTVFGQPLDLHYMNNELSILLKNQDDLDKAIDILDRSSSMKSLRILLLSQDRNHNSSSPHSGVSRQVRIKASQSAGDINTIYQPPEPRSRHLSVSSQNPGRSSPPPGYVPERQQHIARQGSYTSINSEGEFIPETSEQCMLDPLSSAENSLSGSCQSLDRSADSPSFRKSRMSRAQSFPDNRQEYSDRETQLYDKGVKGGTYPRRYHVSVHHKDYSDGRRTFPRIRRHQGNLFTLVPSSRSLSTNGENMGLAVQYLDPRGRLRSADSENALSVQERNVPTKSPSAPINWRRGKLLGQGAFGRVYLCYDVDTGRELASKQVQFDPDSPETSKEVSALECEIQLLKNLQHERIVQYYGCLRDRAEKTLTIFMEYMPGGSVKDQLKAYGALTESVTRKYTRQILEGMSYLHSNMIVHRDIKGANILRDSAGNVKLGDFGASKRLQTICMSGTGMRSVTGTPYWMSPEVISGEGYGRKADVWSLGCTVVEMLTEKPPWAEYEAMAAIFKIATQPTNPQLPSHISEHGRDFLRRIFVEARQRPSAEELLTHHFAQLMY

pEC50	SMILES
< 4.52	c1ccc(-c2nnc3sc(-c4ccc[nH]4)nn23)nc1
< 4.52	c1ccc(-c2nnc3sc(C4CCCCCC4)nn23)nc1
< 4.52	COc1cc([N+](=O)[O-])ccc1-c1nn2c(-c3ccccn3)nnc2s1
< 4.52	COc1cccc(-c2nn3c(-c4ccccn4)nnc3s2)c1
< 4.52	c1csc(Cc2nn3c(-c4ccncc4)nnc3s2)c1
< 4.52	COc1cc([N+](=O)[O-])ccc1-c1nn2c(-c3ccco3)nnc2s1 [3-(2-furanyl)-6-(2-methoxy-4-nitrophenyl)-[1,2,4]triazolo[3,4-b][1,3,4]thiadiazole]
< 4.52	COc1ccc(-c2nn3c(-c4ccccn4)nnc3s2)cc1OC [6-(3,4-dimethoxyphenyl)-3-(2-pyridinyl)-[1,2,4]triazolo[3,4-b][1,3,4]thiadiazole]
< 4.52	CCOc1cccc(-c2nn3c(-c4ccco4)nnc3s2)c1 [6-(3-ethoxyphenyl)-3-(2-furanyl)-[1,2,4]triazolo[3,4-b][1,3,4]thiadiazole]
< 4.52	c1coc(-c2nnc3sc(C4CCCCCC4)nn23)c1 [6-cycloheptyl-3-(2-furanyl)-[1,2,4]triazolo[3,4-b][1,3,4]thiadiazole]
< 4.52	c1coc(-c2nnc3sc(C4CCCCC4)nn23)c1 [6-cyclohexyl-3-(2-furanyl)-[1,2,4]triazolo[3,4-b][1,3,4]thiadiazole]
< 4.52	c1c[nH]c(-c2nn3c(-c4ccco4)nnc3s2)c1 [(6Z)-3-(2-furanyl)-6-(2-pyrrolylidene)-5H-[1,2,4]triazolo[3,4-b][1,3,4]thiadiazole]
< 4.52	c1ccc(-c2nnc3sc(C4CCCCC4)nn23)nc1 [VU0364704-1]

Same assay, conditions: inactive by the depositor's call

pEC50	SMILES
5.96	CCOc1cccc(-c2nn3c(-c4cccs4)nnc3s2)c1 [6-(3-ethoxyphenyl)-3-thiophen-2-yl-[1,2,4]triazolo[3,4-b][1,3,4]thiadiazole]
